Data as given in publication PMC9783573, “Introduction of a SiFA Moiety into the D-Glutamate Chain of DOTA-PP-F11N Results in Radiohybrid-Based CCK-2R-Targeted Compounds with Improved Pharmacokinetics In Vivo” (Pharmaceuticals, 2022).
Where two headings read alike, the source gives them in different places. Starred links: 1 amine or outer side, 2 acyl side, 3 side chain; linkers in the order of their positions; H or OH if unused. Non-standard residues stand in square brackets, D forms with d. Residues, ends and D or L forms follow the SMILES beside them. *: point of attachment. X1 = O=C(O)CN1CCN(CC(=O)O)CCN([C@H](CCC(=O)*)C(=O)O)CCN(CC(=O)O)CC1; Benzoyl(4-SiFtBu2) = CC(C)(C)[Si](F)(c1ccc(C(=O)*)cc1)C(C)(C)C; DOTA = O=C(O)CN1CCN(CC(=O)O)CCN(CC(=O)*)CCN(CC(=O)O)CC1; d(γGlu) = O=C(O)[C@@H](CCC(=O)[*:2])N[*:1]; Nle = CCCC[C@H](N)C(=O)O; dDap = NC[C@@H](N)C(=O)O

Legend:
[1] = Lipophilicity, n-octanol/PBS (pH 7.4) distribution coefficient; assay type: physicochemical
Description: Lipophilicity (depicted as octanol-phosphate-buffered saline solution (PBS, pH = 7.4) distribution coefficient, logD7.4) was determined via dissolving the ^177Lu-labelled peptide (approx. 1 MBq) in a mixture (1/1, v/v) of n-octanol and PBS. The suspension was vortexed in a reaction vial (1.5 mL) for 3 min at RT and the vial was centrifuged at 9000× […] for 5 min (Biofuge 15, Heraus Sepatech GmbH, Osterode, Germany). 200 μL aliquots of both layers were measured separately in a γ-counter (Perkin Elmer, Waltham, MA, USA). The experiment was repeated at least five times.

CCK-2R = target: T1, CCK-2R (Rattus norvegicus, UniProt P30553); experiment: Competitive binding (IC50) on AR42J cells with [177Lu]Lu-DOTA-PP-F11N as radiolabelled reference; conditions: natLu-labelled peptide; AR42J cells 2.0 × 10^5/well, 3 h, 37 °C, [177Lu]Lu-DOTA-PP-F11N 0.3 pmol/well
T1 construct: CCK-2R expressing rat pancreatic cancer cells AR42J (CLS GmbH, Eppelheim,; host or cells: AR42J rat pancreatic cancer cells
T1 sequence (P30553 1-452): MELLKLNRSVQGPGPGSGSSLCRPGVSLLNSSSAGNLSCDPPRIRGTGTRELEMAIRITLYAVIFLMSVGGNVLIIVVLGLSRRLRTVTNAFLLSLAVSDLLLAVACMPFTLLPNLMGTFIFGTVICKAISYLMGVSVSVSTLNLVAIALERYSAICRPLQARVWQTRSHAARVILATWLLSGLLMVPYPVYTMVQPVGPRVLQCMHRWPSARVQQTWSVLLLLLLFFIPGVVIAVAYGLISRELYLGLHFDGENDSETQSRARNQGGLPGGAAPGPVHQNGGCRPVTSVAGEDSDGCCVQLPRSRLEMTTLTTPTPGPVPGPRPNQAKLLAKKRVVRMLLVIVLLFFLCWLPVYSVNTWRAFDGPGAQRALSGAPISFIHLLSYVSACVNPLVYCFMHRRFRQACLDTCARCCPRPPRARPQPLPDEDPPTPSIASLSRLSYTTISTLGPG
Description: Detailed description of all cell-based experiments is provided in the Supplementary Materials. In brief, competitive binding studies were conducted on AR42J cells (2.0 × 10^5 cells per 1 mL/well) via incubation at 37 °C for 3 h using [^177Lu]Lu-DOTA-PP-F11N (0.3 pmol) as a radiolabelled reference (n = 3).
Cell Culture. CCK-2R expressing rat pancreatic cancer cells AR42J (CLS GmbH, Eppelheim, Germany) were cultivated in monolayers in CELLSTAR ® cell culture flasks acquired from Greiner Bio-One GmbH (Frickenhausen, Germany) at 37 °C in a humidified atmosphere (5% CO2) using a HERAcell 150i-Incubator (Thermo Fisher Scientific Inc., Waltham, United States). As nutrient medium RPMI 1640 medium, supplemented with 5 mM L-Gln 5 mL non-essential amino acids (100×) and 10% FCS, was used. Furthermore, a Dulbecco’s PBS solution with 0.1% EDTA (v/v) was applied to detach the cells for cell passaging. The detached cells were counted using a Neubauer hemocytometer ( Paul Marienfeld, Lauda-Königshofen, Germany). In addition, all operations under sterile conditions were accomplished using a MSC-Advantage safety workbench (Thermo Fisher Scientific Inc., Waltham, United States).
Determination of IC50. AR42J cells (2.0 × 10^5 cells/well) were seeded into 24-well plates 24 ± 2 h prior to testing, using 1 mL of nutrient medium (RPMI 1640, 5 mM L-Gln, 5 mL non-essential amino acids (100×), 10% FCS). Cells were incubated at 37 °C in a humidified atmosphere (5% CO2).
After removal of the medium, each well was washed with 500 μL PBS. For the cell-based assay, 200 μL of nutrient medium (+5% BSA), [177Lu]Lu-DOTA-PP-F11N (25 μL, 0.3 pmol) as a radiolabeled reference and 25 μL of the peptide of interest in increasing concentrations (10−10 to 10−4 M) in triplicate were added to the cells. Thereafter, the assay was incubated for 3 h at 37 °C and thereafter, the supernatant was collected. The cells were washed with 300 μL PBS and the collected supernatant fractions were unified.
After lysis of the cells with NaOH (300 μL, 1 N) for 15 min, the respective wells were washed with NaOH (300 μL, 1 N) and both fractions were unified. The radioactivity of both, the supernatant and the lysed fractions was quantified using a γ-counter (PerkinElmer Inc., Waltham, United States ). The obtained data were evaluated via the GraphPad PRISM software ( GraphPad Software Inc., La Jolla, United States), which calculates the halfmaximal inhibitory concentration ( IC50) of the peptides. […]

[2] = 177Lu-labelled peptide, n-octanol/PBS pH 7.4, read-out: logD7.4

CCCC[C@H](NC(=O)[C@H](Cc1c[nH]c2ccccc12)NC(=O)CNC(=O)[C@H](Cc1ccc(O)cc1)NC(=O)[C@H](C)NC(=O)[C@@H](CCC(=O)O)NC(=O)[C@@H](CCC(=O)O)NC(=O)[C@@H](CCC(=O)O)NC(=O)[C@@H](CCC(=O)O)NC(=O)[C@@H](CCC(=O)O)NC(=O)[C@@H](CCC(=O)O)NC(=O)[C@@H](CCC(=O)O)NC(=O)[C@@H](CNC(=O)c1ccc([Si](F)(C(C)(C)C)C(C)(C)C)cc1)NC(=O)CC[C@H](C(=O)O)N1CCN(CC(=O)O)CCN(CC(=O)O)CCN(CC(=O)O)CC1)C(=O)N[C@@H](CC(=O)O)C(=O)N[C@@H](Cc1ccccc1)C(N)=O [[nat/177Lu]Lu-(R)-DOTAGA-rhCCK-8, metal not drawn] (X1-[dDap](Benzoyl(4-SiFtBu2))[dE][dE][dE][dE][dE][dE][dE]AYGW[Nle]DF-NH2)
logD [1, 2]: -2.19 ± 0.08

CCCC[C@H](NC(=O)[C@H](Cc1c[nH]c2ccccc12)NC(=O)CNC(=O)[C@H](Cc1ccc(O)cc1)NC(=O)[C@H](C)NC(=O)[C@@H](CNC(=O)c1ccc([Si](F)(C(C)(C)C)C(C)(C)C)cc1)NC(=O)[C@@H](CCC(=O)O)NC(=O)[C@@H](CCC(=O)O)NC(=O)[C@@H](CCC(=O)O)NC(=O)[C@@H](CCC(=O)O)NC(=O)[C@@H](CCC(=O)O)NC(=O)[C@@H](CCC(=O)O)NC(=O)CC[C@H](C(=O)O)N1CCN(CC(=O)O)CCN(CC(=O)O)CCN(CC(=O)O)CC1)C(=O)N[C@@H](CC(=O)O)C(=O)N[C@@H](Cc1ccccc1)C(N)=O [[nat/177Lu]Lu-(R)-DOTAGA-rhCCK-1, metal not drawn] (X1-[dE][dE][dE][dE][dE][dE][dDap](Benzoyl(4-SiFtBu2))AYGW[Nle]DF-NH2)
logD [1, 2]: -1.71 ± 0.1

CCCC[C@H](NC(=O)[C@H](Cc1c[nH]c2ccccc12)NC(=O)CNC(=O)[C@H](Cc1ccc(O)cc1)NC(=O)[C@H](C)NC(=O)CC[C@@H](NC(=O)CC[C@@H](NC(=O)CC[C@@H](NC(=O)[C@@H](CNC(=O)c1ccc([Si](F)(C(C)(C)C)C(C)(C)C)cc1)NC(=O)CC[C@@H](NC(=O)CC[C@@H](NC(=O)CC[C@@H](NC(=O)CC[C@H](C(=O)O)N1CCN(CC(=O)O)CCN(CC(=O)O)CCN(CC(=O)O)CC1)C(=O)O)C(=O)O)C(=O)O)C(=O)O)C(=O)O)C(=O)O)C(=O)N[C@@H](CC(=O)O)C(=O)N[C@@H](Cc1ccccc1)C(N)=O [[nat/177Lu]Lu-(R)-DOTAGA-rhCCK-13, metal not drawn] ({X1-d(γGlu)-d(γGlu)-d(γGlu)}-[dDap](Benzoyl(4-SiFtBu2))[d(γGlu)][d(γGlu)][d(γGlu)]AYGW[Nle]DF-NH2)
logD [1, 2]: -2.57 ± 0.06

CCCC[C@H](NC(=O)[C@H](Cc1c[nH]c2ccccc12)NC(=O)CNC(=O)[C@H](Cc1ccc(O)cc1)NC(=O)[C@H](C)NC(=O)CC[C@@H](NC(=O)CC[C@@H](NC(=O)CC[C@@H](NC(=O)CC[C@@H](NC(=O)[C@@H](CNC(=O)c1ccc([Si](F)(C(C)(C)C)C(C)(C)C)cc1)NC(=O)CC[C@@H](NC(=O)CC[C@@H](NC(=O)CC[C@H](C(=O)O)N1CCN(CC(=O)O)CCN(CC(=O)O)CCN(CC(=O)O)CC1)C(=O)O)C(=O)O)C(=O)O)C(=O)O)C(=O)O)C(=O)O)C(=O)N[C@@H](CC(=O)O)C(=O)N[C@@H](Cc1ccccc1)C(N)=O [[nat/177Lu]Lu-(R)-DOTAGA-rhCCK-14, metal not drawn] ({X1-d(γGlu)-d(γGlu)}-[dDap](Benzoyl(4-SiFtBu2))[d(γGlu)][d(γGlu)][d(γGlu)][d(γGlu)]AYGW[Nle]DF-NH2)
logD [1, 2]: -2.26 ± 0.05

CCCC[C@H](NC(=O)[C@H](Cc1c[nH]c2ccccc12)NC(=O)CNC(=O)[C@H](Cc1ccc(O)cc1)NC(=O)[C@H](C)NC(=O)CC[C@@H](NC(=O)CC[C@@H](NC(=O)CC[C@@H](NC(=O)CC[C@@H](NC(=O)CC[C@@H](NC(=O)CC[C@@H](NC(=O)CN1CCN(CC(=O)O)CCN(CC(=O)O)CCN(CC(=O)O)CC1)C(=O)O)C(=O)O)C(=O)O)C(=O)O)C(=O)O)C(=O)O)C(=O)N[C@@H](CC(=O)O)C(=O)N[C@@H](Cc1ccccc1)C(N)=O [[nat/177Lu]Lu-DOTA-PP-γ-F11N, metal not drawn] ({DOTA-d(γGlu)-d(γGlu)-d(γGlu)-d(γGlu)-d(γGlu)-d(γGlu)}-AYGW[Nle]DF-NH2)
logD ([1]; pH 7.4): -4.38 ± 0.05

CCCC[C@H](NC(=O)[C@H](Cc1c[nH]c2ccccc12)NC(=O)CNC(=O)[C@H](Cc1ccc(O)cc1)NC(=O)[C@H](C)NC(=O)[C@@H](CCC(=O)O)NC(=O)[C@@H](CCC(=O)O)NC(=O)[C@@H](CNC(=O)c1ccc([Si](F)(C(C)(C)C)C(C)(C)C)cc1)NC(=O)[C@@H](CCC(=O)O)NC(=O)[C@@H](CCC(=O)O)NC(=O)[C@@H](CCC(=O)O)NC(=O)[C@@H](CCC(=O)O)NC(=O)CC[C@H](C(=O)O)N1CCN(CC(=O)O)CCN(CC(=O)O)CCN(CC(=O)O)CC1)C(=O)N[C@@H](CC(=O)O)C(=O)N[C@@H](Cc1ccccc1)C(N)=O [[nat/177Lu]Lu-(R)-DOTAGA-rhCCK-3, metal not drawn] (X1-[dE][dE][dE][dE][dDap](Benzoyl(4-SiFtBu2))[dE][dE]AYGW[Nle]DF-NH2)
logD [1, 2]: -2.03 ± 0.1 | IC50 (CCK-2R): 0.156 ± 0.004 µM
